# Source: US8247211B2, “Glycopeptide antibiotics” (American Cyanamid Company, priority 2001, dated 2012)
# Key:
# [1] = Anatomic pathology (heart and kidney histopathology) in mice; type: in vivo, CD-1 mice; details: 20 mg/kg intravenously daily for 9 days, microscopic histopathology on day 10
# Method in brief: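 Histopathology on H&E-stained, paraffin-embedded sections, subjectively scored (slight, mild, moderate, marked, severe) relative to untreated controls. Dosing: glycopeptide antibiotics 20 mg/kg intravenously once daily ×9 days in 20-day-old CD-1 mice, n=5 per group including vehicle.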
# Escherichia coli = assay: In vitro antibacterial evaluation: minimum inhibitory concentration (MIC), broth dilution method; type: cell-based; details: 5×10^5 CFU/mL, 18 hours at 35° C.
# Method in brief: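 Test strains, among them recent clinical isolates carrying methicillin, penicillin and/or vancomycin resistance, were inoculated at 5×10^5 CFU/mL. A broth dilution series spanning 64-0.06 μg/mL in Muller-Hinton II […] (NCCLS M7-A2) defined the MIC as the lowest growth-inhibiting concentration.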
# Enterococcus sp. = assay: as above; type: cell-based; details: broth dilution, 18 hours at 35° C.
# Method in brief: (§1)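 First, organisms are seeded at 5×10^5 CFU/mL into Muller-Hinton II […]. Next, antibiotic is applied across 64-0.06 μg/mL by broth dilution (NCCLS M7-A2). Finally, the lowest inhibitory concentration is recorded as MIC.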
# Streptococcus sp. = assay: as above; type: cell-based; details: broth dilution, 18 hours at 35° C.
# Method in brief: as §1
# Staphylococcus sp. = assay: as above; type: cell-based; details: for MIC Staphylococcus aureus (ATCC 29213): strain ATCC 29213; for MIC Staphylococcus aureus (GC 1131): strain GC 1131; for MIC Staphylococcus aureus (GC 3051): strain GC 3051; for MIC Staphylococcus aureus (GC 3053): strain GC 3053; for MIC Staphylococcus aureus (GC 4541): strain GC 4541; for MIC Staphylococcus aureus (GC 4545): strain GC 4545; for MIC Staphylococcus haemolyticus (GC 4546): strain GC 4546; for MIC Coagulase Negative Staphylococcus (GC 4547): strain GC 4547; for MIC Coagulase Negative Staphylococcus (GC 6257): strain GC 6257
# Method in brief: as §1
# [2] = system: Streptococcus pneumoniae (GC 1894), penicillin resistant strain; assay: Acute lethal infection in mice (ED50); type: in vivo; details: female CD-1 mice, intraperitoneal challenge, intravenous dose 30 min. after infection, 7 day survival ratios
# Method in brief: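 Bacteria suspended in Trypticase Soy Broth or hog gastric mucin are injected intraperitoneally into female CD-1 mice at a dose killing untreated animals within 24-48 hr. Thirty minutes later, test agent is administered intravenously. Survival at day 7 is scored.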
# [3] = broth dilution, 18 hours at 35° C.
smiles,measurement,setting,value
"N=C1NCC(C(O)C2NC(=O)C(Cc3ccc(OC4OC(CO)C(OC5OC6COC7(OC6C(O)C5O)C5CC6CC(C5)CC7C6)C(O)C4O)cc3)NC(=O)C(CC3CCCCC3)NC(=O)CNC(=O)C(CO)NC(=O)C(C(O)C3CNC(=N)N3C3OC(CO)C(O)C(O)C3O)NC2=O)N1 (stereo not drawn) [Example 106, Cyclo[3-cyclohexylalanyl-O-[4-O-[4,6-O-(2-adamantylidene)hexopyranosyl]hexopyranosyl]-tyrosyl-3-(2-iminoimidazolidin-4-yl)seryl-3-(3-hexopyranosyl-2-iminoimidazolidin-4-yl)-serylserylglycyl]]","Anatomical Pathology (Day 10), Heart",[1],0
same,MIC Escherichia coli (ATCC 25922),Escherichia coli,32 to 64 µg/mL
same,MIC Escherichia coli (GC 4559),Escherichia coli,32 to 64 µg/mL
same,MIC Escherichia coli (GC 4560),Escherichia coli,0.5 to 2 µg/mL
same,MIC Enterococcus avium (GC 4558),Enterococcus sp.; Enterococcus avium (GC 4558),1 to 2 µg/mL
same,MIC Enterococcus faecalis (ATCC 29212),Enterococcus sp.; Enterococcus faecalis (ATCC 29212),0.5 to 2 µg/mL
same,MIC Enterococcus faecalis (GC 2242),Enterococcus sp.; Enterococcus faecalis (GC 2242),0.5 to 2 µg/mL
same,MIC Enterococcus faecalis (GC 2691),Enterococcus sp.; Enterococcus faecalis (GC 2691),1 to 2 µg/mL
same,MIC Enterococcus faecalis (GC 3059),Enterococcus sp.; Enterococcus faecalis (GC 3059),1 to 2 µg/mL
same,MIC Enterococcus faecalis (GC 4552),Enterococcus sp.; Enterococcus faecalis (GC 4552),1 to 2 µg/mL
same,MIC Enterococcus faecalis (GC 4553),Enterococcus sp.; Enterococcus faecalis (GC 4553),1 to 2 µg/mL
same,MIC Enterococcus faecalis (GC 4554),Enterococcus sp.; Enterococcus faecalis (GC 4554),1 to 2 µg/mL
same,MIC Enterococcus faecalis (GC 6189),Enterococcus sp.; Enterococcus faecalis (GC 6189),1 to 2 µg/mL
same,MIC Enterococcus faecium (GC 2243),Enterococcus sp.; Enterococcus faecium (GC 2243),0.5 to 2 µg/mL
same,MIC Enterococcus faecium (GC 4556),Enterococcus sp.; Enterococcus faecium (GC 4556),0.5 to 2 µg/mL
same,MIC Enterococcus faecium (GC 4557),Enterococcus sp.; Enterococcus faecium (GC 4557),0.5 to 2 µg/mL
same,MIC Enterococccus avium (GC 4558),Enterococcus sp.; 5×10^5 CFU/mL,1 to 2 µg/mL
same,MIC Enterococccus faecalis (ATCC 29212),Enterococcus sp.; 5×10^5 CFU/mL,0.5 to 2 µg/mL
same,MIC Enterococccus faecalis (GC 2691),Enterococcus sp.; 5×10^5 CFU/mL,1 to 2 µg/mL
same,MIC Enterococccus faecalis (GC 3059),Enterococcus sp.; 5×10^5 CFU/mL,1 to 2 µg/mL
same,MIC Enterococccus faecalis (GC 4552),Enterococcus sp.; 5×10^5 CFU/mL,1 to 2 µg/mL
same,MIC Enterococccus faecalis (GC 4553),Enterococcus sp.; 5×10^5 CFU/mL,1 to 2 µg/mL
same,MIC Enterococccus faecalis (GC 4554),Enterococcus sp.; 5×10^5 CFU/mL,1 to 2 µg/mL
same,MIC Enterococccus faecalis (GC 6189),Enterococcus sp.; 5×10^5 CFU/mL,1 to 2 µg/mL
same,MIC Enterococccus faecium (GC 2243),Enterococcus sp.; 5×10^5 CFU/mL,0.5 to 2 µg/mL
same,MIC Enterococccus faecium (GC 4556),Enterococcus sp.; 5×10^5 CFU/mL,0.5 to 2 µg/mL
same,MIC Enterococccus faecium (GC 4557),Enterococcus sp.; 5×10^5 CFU/mL,0.5 to 2 µg/mL
same,MIC Enterococcus faecalis (GC 2242),Enterococcus sp.; 5×10^5 CFU/mL,0.5 to 2 µg/mL
same,MIC Streptococcus agalactiae (GC 4564),Streptococcus sp.; Streptococcus agalactiae (GC 4564),<0.03 µg/mL
same,MIC Streptococcus pneumoniae (ATCC 6301),Streptococcus sp.; Streptococcus pneumoniae (ATCC 6301),<0.03 µg/mL
same,MIC Streptococcus pneumoniae (GC 1894),Streptococcus sp.; Streptococcus pneumoniae (GC 1894),<0.03 µg/mL
same,MIC Streptococcus pneumoniae (GC 4565),Streptococcus sp.; Streptococcus pneumoniae (GC 4565),<0.03 µg/mL
same,MIC Streptococcus pyogenes (GC 4563),Streptococcus sp.; Streptococcus pyogenes (GC 4563),<0.03 µg/mL
same,MIC Streptococcus agalactiae (GC 4564),Streptococcus sp.; 5×10^5 CFU/mL,<0.03 µg/mL
same,MIC Streptococcus pneumoniae (GC 1894),Streptococcus sp.; 5×10^5 CFU/mL,<0.03 µg/mL
same,MIC Streptococcus pneumoniae (GC 4565),Streptococcus sp.; 5×10^5 CFU/mL,<0.03 µg/mL
same,MIC Streptococcus pneumonine (ATCC 6301),Streptococcus sp.; 5×10^5 CFU/mL,<0.03 µg/mL
same,MIC Streptococcus pyogenes (GC 4563),Streptococcus sp.; 5×10^5 CFU/mL,<0.03 µg/mL
same,MIC Staphylococcus aureus (ATCC 29213),Staphylococcus sp.,0.5 to 2 µg/mL
same,MIC Staphylococcus aureus (ATCC 29213),Staphylococcus sp.; [3],0.5 to 2 µg/mL
same,MIC Staphylococcus aureus (GC 1131),Staphylococcus sp.,0.5 to 2 µg/mL
same,MIC Staphylococcus aureus (GC 1131),Staphylococcus sp.; [3],0.5 to 2 µg/mL
same,MIC Staphylococcus aureus (GC 3051),Staphylococcus sp.,0.5 to 2 µg/mL
same,MIC Staphylococcus aureus (GC 3051),Staphylococcus sp.; [3],0.5 to 2 µg/mL
same,MIC Staphylococcus aureus (GC 3053),Staphylococcus sp.,0.5 to 2 µg/mL
same,MIC Staphylococcus aureus (GC 3053),Staphylococcus sp.; [3],0.5 to 2 µg/mL
same,MIC Staphylococcus aureus (GC 4541),Staphylococcus sp.,0.5 to 2 µg/mL
same,MIC Staphylococcus aureus (GC 4541),Staphylococcus sp.; [3],0.5 to 2 µg/mL
same,MIC Staphylococcus aureus (GC 4545),Staphylococcus sp.,0.5 to 2 µg/mL
same,MIC Staphylococcus aureus (GC 4545),Staphylococcus sp.; [3],0.5 to 2 µg/mL
same,MIC Staphylococcus haemolyticus (GC 4546),Staphylococcus sp.,0.5 to 1 µg/mL
same,MIC Staphylococcus haemolyticus (GC 4546),Staphylococcus sp.; [3],0.5 to 1 µg/mL
same,MIC Coagulase Negative Staphylococcus (GC 4547),Staphylococcus sp.,0.5 to 2 µg/mL
same,MIC Coagulase Negative Staphylococcus (GC 4547),Staphylococcus sp.; [3],0.5 to 2 µg/mL
same,MIC Coagulase Negative Staphylococcus (GC 6257),Staphylococcus sp.,0.25 µg/mL
same,MIC Coagulase Negative Staphylococcus (GC 6257),Staphylococcus sp.; [3],0.25 µg/mL
same,"median effective dose (ED50), Streptococcus pneumoniae (GC 1894)",[2],0.07 mg/kg
